Laboratory results as given in article PMC5199130 (Molecular Systems Biology, 2016).

Legend:
MavQ = molecular target: T1, MavQ (Legionella pneumophila, UniProt Q5ZRA8)
T1 construct: gene lpg2975

[1] = molecular target: RavJ (Lpg0944) 1–230, purified (Legionella pneumophila str. Philadelphia-1) (UniProt Q5ZWY9); assay: crystal structure
crystal structure = molecular target: the molecule itself; assay: crystal structure

Row | Molecule | ADP-Glo kinase assay (MavQ) | other results
1 | Nc1ncnc2c1ncn2[C@@H]1O[C@H](COP(=O)(O)OP(=O)(O)OP(=O)(O)O)[C@@H](O)[C@H]1O [ATP] | wild‐type MavQ, but not the D147A mutant, possesses robust ATP hydrolysis activity | –
2 | CCCCCCCC(=O)OC[C@H](COP(=O)(O)O[C@@H]1[C@H](O)[C@H](O)[C@@H](O)[C@H](O)[C@H]1O)OC(=O)CCCCCCC [PI diC8] | addition of phosphoinositide to this reaction increased the activity of the wild‐type MavQ fivefold | –
3 | LegL1 (Lpg0945) 1–296, purified (from UniProt Q5ZWY8 1-296) (natural protein) | – | stoichiometry N [1]: 1
4 | Lem14 (Lpg1851) 1–220, purified and crystallised (natural protein) MSFELVAYEKLKGSIRESIITLIKSHNEKAKIIEDKLEYSVKEVSRERQPQVLVLLKTIELLDNSSKEPEDKARVLNALAYYIRDQIAATYKYTSPDNSDFYKSLTISLDLNKDNNPNREDLADMYSALEKFLRSHVYKNSDPRKGYLDKQPFAIKHYSVVDDILELSDRVHKLRHEIIIAARDLHLLQQKPKSSQGGLFSVPSGKEKVTDTHEVANHRL | – | stoichiometry N (crystal structure): 2
